Test system: maternal HIV+ sera (antibodies)
Assay: RIA / ELISA binding of maternal HIV+ sera to gp120 and gp41 peptides (Example 3)
Set-up: species or system human
Details: for Binding of maternal sera to peptide (in words): Example 3
Method in brief: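 Peptides were coated at 10 μg/ml in carbonate buffer pH 9.6 and blocked with 1% BSA. Sera at 1:50 and 1:500 were incubated overnight at 4°C and detected with ¹²⁵I anti-human IgG (RIA) or HRP/TMB at OD450 (ELISA). Specific binding was taken as peptide minus no-peptide wells, scored as a ratio to normal human serum.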

[1] = Serum No. 1, Non-Transmission Group
[2] = Serum No. 2, Non-Transmission Group
[3] = Serum No. 3, Non-Transmission Group
[4] = Serum No. 4, Transmission Group
[5] = Serum No. 5, Transmission Group
[6] = Serum No. 6, Non-Transmission Group
[7] = Serum No. 7, Non-Transmission Group
[8] = Serum No. 8, Non-Transmission Group
[9] = Serum No. 9, Non-Transmission Group
[10] = Serum No. 10, Transmission Group
[11] = Serum No. 11, Non-Transmission Group
[12] = Serum No. 12, Non-Transmission Group
[13] = Serum No. 13, Transmission Group
[14] = Serum No. 14, Transmission Group
[15] = Serum No. 15, Transmission Group
[16] = Serum No. 16, Non-Transmission Group
[17] = Serum No. 17, Non-Transmission Group
[18] = Serum No. 18, Non-Transmission Group
[19] = Serum No. 19, Transmission Group
[20] = Serum No. 20, Non-Transmission Group

Sequence | Binding of maternal sera to peptide (in words) | Binding of maternal HIV+ serum to peptide (sera/NHS ratio) [1] | Binding of maternal HIV+ serum to peptide (sera/NHS ratio) [2] | Binding of maternal HIV+ serum to peptide (sera/NHS ratio) [3] | Binding of maternal HIV+ serum to peptide (sera/NHS ratio) [4] | Binding of maternal HIV+ serum to peptide (sera/NHS ratio) [5] | Binding of maternal HIV+ serum to peptide (sera/NHS ratio) [6] | Binding of maternal HIV+ serum to peptide (sera/NHS ratio) [7] | Binding of maternal HIV+ serum to peptide (sera/NHS ratio) [8] | Binding of maternal HIV+ serum to peptide (sera/NHS ratio) [9] | Binding of maternal HIV+ serum to peptide (sera/NHS ratio) [10] | Binding of maternal HIV+ serum to peptide (sera/NHS ratio) [11] | Binding of maternal HIV+ serum to peptide (sera/NHS ratio) [12] | Binding of maternal HIV+ serum to peptide (sera/NHS ratio) [13] | Binding of maternal HIV+ serum to peptide (sera/NHS ratio) [14] | Binding of maternal HIV+ serum to peptide (sera/NHS ratio) [15] | Binding of maternal HIV+ serum to peptide (sera/NHS ratio) [16] | Binding of maternal HIV+ serum to peptide (sera/NHS ratio) [17] | Binding of maternal HIV+ serum to peptide (sera/NHS ratio) [18] | Binding of maternal HIV+ serum to peptide (sera/NHS ratio) [19] | also measured
ATEKLWVTVYYGVPVWLEATTTL [Peptide 60] | No binding | - (specific OD450 or cpm of sera sample binding to peptide divided by the specific OD450 or cpm of NHS sample binding to peptide, which value is less than 2) | - (specific OD450 or cpm of sera sample binding to peptide divided by the specific OD450 or cpm of NHS sample binding to peptide, which value is less than 2) | - (specific OD450 or cpm of sera sample binding to peptide divided by the specific OD450 or cpm of NHS sample binding to peptide, which value is less than 2) | - (specific OD450 or cpm of sera sample binding to peptide divided by the specific OD450 or cpm of NHS sample binding to peptide, which value is less than 2) | - (specific OD450 or cpm of sera sample binding to peptide divided by the specific OD450 or cpm of NHS sample binding to peptide, which value is less than 2) | - (specific OD450 or cpm of sera sample binding to peptide divided by the specific OD450 or cpm of NHS sample binding to peptide, which value is less than 2) | - (specific OD450 or cpm of sera sample binding to peptide divided by the specific OD450 or cpm of NHS sample binding to peptide, which value is less than 2) | - (specific OD450 or cpm of sera sample binding to peptide divided by the specific OD450 or cpm of NHS sample binding to peptide, which value is less than 2) | - (specific OD450 or cpm of sera sample binding to peptide divided by the specific OD450 or cpm of NHS sample binding to peptide, which value is less than 2) | - (specific OD450 or cpm of sera sample binding to peptide divided by the specific OD450 or cpm of NHS sample binding to peptide, which value is less than 2) | - (specific OD450 or cpm of sera sample binding to peptide divided by the specific OD450 or cpm of NHS sample binding to peptide, which value is less than 2) | - (specific OD450 or cpm of sera sample binding to peptide divided by the specific OD450 or cpm of NHS sample binding to peptide, which value is less than 2) | - (specific OD450 or cpm of sera sample binding to peptide divided by the specific OD450 or cpm of NHS sample binding to peptide, which value is less than 2) | - (specific OD450 or cpm of sera sample binding to peptide divided by the specific OD450 or cpm of NHS sample binding to peptide, which value is less than 2) | - (specific OD450 or cpm of sera sample binding to peptide divided by the specific OD450 or cpm of NHS sample binding to peptide, which value is less than 2) | - (specific OD450 or cpm of sera sample binding to peptide divided by the specific OD450 or cpm of NHS sample binding to peptide, which value is less than 2) | - (specific OD450 or cpm of sera sample binding to peptide divided by the specific OD450 or cpm of NHS sample binding to peptide, which value is less than 2) | - (specific OD450 or cpm of sera sample binding to peptide divided by the specific OD450 or cpm of NHS sample binding to peptide, which value is less than 2) | - (specific OD450 or cpm of sera sample binding to peptide divided by the specific OD450 or cpm of NHS sample binding to peptide, which value is less than 2) | Binding of maternal HIV+ serum to peptide (sera/NHS ratio) [20]: - (specific OD450 or cpm of sera sample binding to peptide divided by the specific OD450 or cpm of NHS sample binding to peptide, which value is less than 2)
PQEVVLVNVTGENFNM [Peptide 96] | No binding | - (specific OD450 or cpm of sera sample binding to peptide divided by the specific OD450 or cpm of NHS sample binding to peptide, which value is less than 2) | - (specific OD450 or cpm of sera sample binding to peptide divided by the specific OD450 or cpm of NHS sample binding to peptide, which value is less than 2) | - (specific OD450 or cpm of sera sample binding to peptide divided by the specific OD450 or cpm of NHS sample binding to peptide, which value is less than 2) | - (specific OD450 or cpm of sera sample binding to peptide divided by the specific OD450 or cpm of NHS sample binding to peptide, which value is less than 2) | - (specific OD450 or cpm of sera sample binding to peptide divided by the specific OD450 or cpm of NHS sample binding to peptide, which value is less than 2) | - (specific OD450 or cpm of sera sample binding to peptide divided by the specific OD450 or cpm of NHS sample binding to peptide, which value is less than 2) | - (specific OD450 or cpm of sera sample binding to peptide divided by the specific OD450 or cpm of NHS sample binding to peptide, which value is less than 2) | - (specific OD450 or cpm of sera sample binding to peptide divided by the specific OD450 or cpm of NHS sample binding to peptide, which value is less than 2) | - (specific OD450 or cpm of sera sample binding to peptide divided by the specific OD450 or cpm of NHS sample binding to peptide, which value is less than 2) | - (specific OD450 or cpm of sera sample binding to peptide divided by the specific OD450 or cpm of NHS sample binding to peptide, which value is less than 2) | - (specific OD450 or cpm of sera sample binding to peptide divided by the specific OD450 or cpm of NHS sample binding to peptide, which value is less than 2) | - (specific OD450 or cpm of sera sample binding to peptide divided by the specific OD450 or cpm of NHS sample binding to peptide, which value is less than 2) | - (specific OD450 or cpm of sera sample binding to peptide divided by the specific OD450 or cpm of NHS sample binding to peptide, which value is less than 2) | - (specific OD450 or cpm of sera sample binding to peptide divided by the specific OD450 or cpm of NHS sample binding to peptide, which value is less than 2) | - (specific OD450 or cpm of sera sample binding to peptide divided by the specific OD450 or cpm of NHS sample binding to peptide, which value is less than 2) | - (specific OD450 or cpm of sera sample binding to peptide divided by the specific OD450 or cpm of NHS sample binding to peptide, which value is less than 2) | - (specific OD450 or cpm of sera sample binding to peptide divided by the specific OD450 or cpm of NHS sample binding to peptide, which value is less than 2) | - (specific OD450 or cpm of sera sample binding to peptide divided by the specific OD450 or cpm of NHS sample binding to peptide, which value is less than 2) | - (specific OD450 or cpm of sera sample binding to peptide divided by the specific OD450 or cpm of NHS sample binding to peptide, which value is less than 2) | Binding of maternal HIV+ serum to peptide (sera/NHS ratio) [20]: - (specific OD450 or cpm of sera sample binding to peptide divided by the specific OD450 or cpm of NHS sample binding to peptide, which value is less than 2)
